Assay results published in patent US20140190225A1, “ALTERING ANIMAL WASTE COMPOSITION” (AgResearch Limited, priority 2004, published 2014).

Key:
[1] = Tolerability of abomasal infusion in sheep; format: in vivo; conditions: DCD 15 g/day, 4 MP 1 g/day, Agrotain 80 g/day
From the text: (§1) Sheep were then transferred indoors to metabolism crates.

[2] = system: nitrification of urine/urea-N in soil; experiment: Soil incubation with urine from abomasally infused sheep: nitrification; conditions: urine from sheep with abomasal infusion, DCD 15 g/day or 4 MP 1 g/day; soil incubated at 20° C.
Method: (§2) This was determined by firstly measuring the urea concentration in urine samples and adjusting the urine volume (or in a few samples with low concentrations, urea was added) so that the same rate of urea-N was added to soil (100 g) in plastic bags. The soil was a Horotiu silt loam derived from volcanic ash taken from a pastoral site which had been ungrazed for over 6 months so that no residual animal urine was present.
(§3) The urine-treated soil samples were incubated at 20° C. and sub-samples were removed at regular intervals over time for analysis of ammonium and nitrate in 2M KCl extracts using standard methods. The level of inhibition of nitrification was evident from less nitrate formation (FIG. 4B; P<0.001 at all incubation times) and higher ammonium levels (FIG. 4A; P<0.001 at all incubation times). Inhibition of nitrification was higher for DCD than for 4 MP (P<0.01), with an average reduction in nitrate production relative to the control of 96 and 51%, respectively (FIG. 4C). This difference may have been influenced by the rate of inhibitor used.

nitrate leaching = experiment: Lysimeter study: nitrate leaching; conditions: inhibitor added to cow urine, 1.5 g DCD/m^2 or 0.1 g 4 MP/m^2; 104 days
From the text: (§4) Undisturbed soil lysimeters (30 cm diameter×50 cm depth) were collected from a pastoral site near Lake Taupo which had been under a cutting regime with no grazing animals for over 18 months. The soil was a Taupo sandy loam (yellow brown pumice or allophanic soil). A gap (c. 1 cm) between the side of the soil cores and the PVC lysimeter housing was filled with Vaseline to stop possible edge-flow of water or urine. The lysimeters were transferred to a lysimeter facility (near Hamilton, New Zealand) where they were buried in soil so that the soil surface in the lysimeter was at ground level. However, the lysimeter casing extended about 4 cm above the soil surface to stop any lateral surface loss.
There were five replicate lysimeters with the following treatments included: a control, urine, urine+DCD, and urine+4 MP. Urine was collected from Jersey dairy cows, stored at 4° C. and applied to the lysimeters within 4 days. The urine solution was applied at 10 L/m^2 giving the equivalent of 800 kg N/ha (similar to that for a cow urine patch). […]
Nitrate leaching from lysimeters was measured by collection of leachate draining from the base of each lysimeter. This drainage water was collected at regular intervals and analysed for nitrate concentration. […]

nitrous oxide emissions = experiment: Lysimeter study: nitrous oxide emission
From the text: as §4
There were five replicate lysimeters with the following treatments included: a control, urine, urine+DCD, and urine+4 MP. Urine was collected from Jersey dairy cows, stored at 4° C. and applied to the lysimeters within 4 days. The urine solution was applied at 10 L/m^2 giving the equivalent of 800 kg N/ha (similar to that for a cow urine patch). For the DCD and 4 MP treatments, the inhibitor compounds were dissolved in the urine prior to application to represent urine excreted from inhibitor-administered animals. Inputs in these treatments were equivalent to 1.5 g DCD/m^2 and 0.1 g 4 MP/m^2.
Lysimeters were left to stabilise for several weeks after installation in the facility. Treatments were applied in May 2004. Pasture on the lysimeters was trimmed prior to treatment application and was regularly cut at heights and intervals similar to that under dairy cow grazing.
Nitrous oxide (N2O) emission from the main lysimeters was measured using a standard closed chamber method. Chambers were placed on the lysimeters at regular intervals during the study for periods of one hour at around midday. Gas samples were collected at 0, 30 and 60 minutes from the headspace of the chambers for N2O analysis by gas chromatography. […] Cumulative N2O emissions over the measurement period averaged 1.2 and 0.5 kg N/ha for the urine and urine+DCD treatments, giving a 57% reduction from DCD.

[3] = Excretion efficiency of DCD in non-lactating dairy cows (metabolism stall study); format: in vivo
Method: The efficiency of excretion of DCD in urine relative to DCD administered to animals was determined in a metabolism stall study involving five non-lactating dairy cows. The study was conducted on the DairyNZ Lye Farm, near Hamilton, New Zealand.
Each cow was fed a diet of pasture silage.
The five cows were administered DCD via addition to the pasture silage feed at a dosage rate was 30 g/animal/day.
Animal waste collectors were fitted to animals and configured to collect urine and dung separately. The animal waste was analysed for DCD concentration using known analysis techniques.

[4] = DCD in urine of sheep, abomasal infusion (HPLC); format: in vivo
From the text: as §1
Infusion of treatments continued for 4 days, after which there was an 11 day non-treatment clearance/rest period before repeating this phase. Sheep allocation to treatments changed over each period in a statistical cross-over design (defined by statisticians) so that 11 sheep had been subjected to each of 3 treatments (control, DCD and 4 MP), and so that within- and between-sheep variability could be evaluated.
Presence of DCD in urine samples was determined using high-performance liquid chromotography. […] There was some variability between sheep in DCD concentrations in urine, but this reflected differences in urination volumes (FIG. 3) so that there was much less difference in the amount of DCD excreted per urination. Concentrations of DCD in urine declined to negligible levels within 7 days after ceasing infusion (FIG. 2).

[5] = system: nitrification inhibition in soil; experiment: Laboratory soil incubation with urine from DCD-treated cows
Method: A laboratory incubation experiment was set up to confirm that the DCD contained in urine from DCD-treated cows retained its nitrification inhibition properties after application to soil. Urine from DCD-treated cows was compared to urine from non-treated cows spike with varying rates of DCD.

[6] = DCD in urine of dairy heifers drenched daily; format: in vivo; conditions: daily drench
From the text: In addition, in a separate study, dairy heifers were drenched daily with a DCD solution.

[7] = system: conversion of nitrogen containing compounds; conditions: cited from earlier work
[8] = Freezing of urine: presence and activity of inhibitors; format: physicochemical; conditions: urine frozen at −20° C.
From the text: During each infusion period the sheep were housed in metabolism crates to allow daily collection of urine and faeces samples. Single urination event samples were also collected from each sheep every day and were frozen for subsequent analysis of inhibitor content and for inhibitory activity in soil.

[9] = Excretion efficiency of DCD in sheep; format: in vivo
[10] = DCD in urine of sheep, ruminal infusion (HPLC); format: in vivo
Method: (§5) The 12 sheep were randomly allocated to one of 2 treatments; water infusion (Control) or DCD at 15 g/day (DCD group). Experimental methodology was the same as for the abomasal infusion study in that there was a 4 day period of continuous infusion followed by an 11 day non-treatment clearance/rest period.
Presence of DCD in urine samples was determined using high-performance liquid chromotography. […] However, concentrations of DCD in urine were lower at day 1 of infusion than days 2-4, as expected because of time for rumen processing. Levels declined after ceasing infusion and were negligible within 7 days (FIG. 5).

[11] = system: nitrification of urine/urea-N in soil; experiment: Soil incubation with urine from ruminally infused sheep: nitrification; conditions: urine from sheep with ruminal infusion of DCD 15 g/day
Method: as §2, §3, §5

[12] = cows, 30 g/animal/day in feed, at equilibrium

Which results are given for `Cc1cn[nH]c1` [4 MP, 4 methylpyrazole]?
effect of infusion on sheep (live-weight changes, body condition, general bodily function, feed intake) [1]: no adverse effect; average reduction in nitrate production relative to the control [2]: 51%; reduction in cumulative nitrate leaching versus urine treatment (nitrate leaching): 71%; effect on nitrous oxide emissions (nitrous oxide emissions; inhibitor added to urine, lysimeters): reducing

Which “efficiency of excretion in urine” value ([3]; cattle such as beef or dairy) does the source give for `N#CN=C(N)N` [DCD, dicyandiamide] here?
The value was 80-81%.

And the “DCD administered recovered in dung” value [3, 12]?
The value was 10%.

What about the “DCD administered recovered in urine” value [3, 12] of the same compound?
The value was 81%.

And the “DCD concentration in urine during the infusion period” value ([4]; DCD 15 g/day abomasal infusion, versus control, P<0.001)?
Its value is “highly significant increase”.

What about the “time for DCD in urine to decline to negligible levels after ceasing infusion” value ([4]; abomasal infusion 15 g/day) of the same compound?
The value was no more than 7 days.

What about the “DCD in urine from DCD-treated cows, measured rate equivalent” value ([5]; FIG. 11 legend) of the same compound?
The value was 51 kg DCD/ha.

And the “nitrification inhibition in soil of DCD in urine from treated cows versus urine spiked with an equivalent level of DCD” value ([5]; laboratory incubation)?
Its value is “same level of nitrification inhibition”.

And the “effect of infusion on sheep (live-weight changes, body condition, general bodily function, feed intake)” value [1]?
Its value is “no adverse effect”.

And the “DCD concentration in urine over a 90 day treatment period” value [6]?
The value was “remained relatively constant”.

What about the “average reduction in nitrate production relative to the control” value [2] of the same compound?
The value was 96%.

What about the “effectiveness at a rate of approximately 5 kg/ha” value ([7]; DCD rate on land approximately 5 kg/ha) of the same compound?
The value was “relatively ineffective”.

What about the “improvement at rates in excess of 10 kg/ha compared to 10 kg/ha” value ([7]; application to land, most soils, rainfall below about 1500 mm/year) of the same compound?
The value was “negligible improvements”.

And the “reduction in cumulative nitrate leaching versus urine treatment” value (nitrate leaching)?
Its value is 56%.

What about the “effect of freezing urine on presence or activity” value [8] of the same compound?
Its value is “no effect”.

What about the “efficiency of transfer to urine” value [9] of the same compound?
Its value is “approximately 86%”.

What about the “DCD excretion in urine over the infusion period” value ([10]; DCD 15 g/day ruminal infusion, 4 days) of the same compound?
The value was “high levels of DCD were absorbed and excreted in urine in an unaltered form”.

What about the “time for DCD in urine to become negligible after ceasing infusion” value ([10]; ruminal infusion 15 g/day) of the same compound?
Its value is no more than 7 days.

What about the “reduction in cumulative N2O emissions” value (nitrous oxide emissions; urine+DCD versus urine) of the same compound?
The value was 57%.

What about the “cumulative N2O emissions over the measurement period” value (nitrous oxide emissions; urine+DCD, 1.5 g DCD/m^2, urine alone 1.2) of the same compound?
The value was 0.5 kg N/ha.

And the “average reduction in nitrate production” value [11]?
The value was 81%.
